For the test, the system named is HCV replicon RNA in human hepatoma Huh7 cells (cell line 2209-23). Kind of test: HCV Replicon assay (Renilla luciferase reporter, 2209-23 cells). The following applies: for IC50: Hepatitis C virus, Huh-7, 72 h, read-out: IC50 (HCV Replicon assay). The class given is cell-based, Hepatitis C virus.

Where two headings read alike, the source gives them in different places.

Take `Nc1nc2c(ncn2[C@@H]2O[C@H](CO)[C@@H](O)[C@H]2F)c(=O)[nH]1` [2′-Deoxy-2′-fluoroguanosine]: for the setting “@ 20 μM, Renilla luciferase HCV replicon cells 2209-23”, the “% reduction of replicon level at fixed concentration” value stood at 62% @ 20.

As for `Nc1ccn([C@@H]2O[C@H](CO)[C@@H](O)[C@H]2F)c(=O)n1` [2′-Deoxy-2′-fluorocytidine], the IC50 (Renilla luciferase HCV replicon cells 2209-23, three days incubation) is 0.74 µM.

For the compound `Nc1nc(N)c2ncn([C@@H]3O[C@H](CO)[C@@H](O)[C@H]3F)c2n1` [9-(2-Deoxy-2-fluoro-β-D-ribofuranosyl)-2,6-diaminopurine], the half-maximal inhibitory concentration (IC50) came out at 10 µM.

Values taken from patent publication US6660721B2, “Anti-HCV nucleoside derivatives” (Hoffmann-la Roche Inc., priority 2001, dated 2003).
